Patent US11596639B2, “Substituted indole Mcl-1 inhibitors” (Vanderbilt University, priority 2016, dated 2023)
Read-outs that look alike come from different tables or passages of the source.

Experiments:
[1] = biological target: Mcl-1 (Homo sapiens (Human), UniProt Q07820); assay: Fluorescence polarization anisotropy (FPA) competition assay, FITC-Bak or FITC-Bim BH3 peptide; assay type: binding; conditions: read-out: Ki for Inhibition of Mcl-1 by FPA assay
[2] = test system: H929 human cancer cell lines; assay: Cellular viability / proliferation (Cell TiterGlo, 72 h); assay type: cell-based
Summary of the method: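 Compounds were added as 2-fold serial dilutions from 50 μM (final DMSO <1%) to H929 cells seeded 1,000 per well in 10% FBS medium one day earlier.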

[3] = Homo sapiens, NCI-H929, 72 h, read-out: GI50 on cellular proliferation of H929 human cancer cell lines, H929 cells, 72 h, Cell TiterGlo, 10% FBS

Chain of Mcl-1 (Q07820 172-327): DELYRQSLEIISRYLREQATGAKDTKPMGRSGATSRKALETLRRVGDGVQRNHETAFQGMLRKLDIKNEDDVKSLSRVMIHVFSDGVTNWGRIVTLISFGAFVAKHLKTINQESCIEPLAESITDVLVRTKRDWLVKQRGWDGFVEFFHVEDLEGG

Row | Compound | Ki [1] | GI50 [2, 3] | GI50 ([2]; H929 cells, 72 h, Cell TiterGlo, 10% FBS, read-out: GI50 on cellular proliferation of H929 human cancer cell lines)
1 | Cc1cc(OCCCc2c3n(c4c(-c5c(C)nn(C)c5C)c(Cl)ccc24)[C@H](C)CN(c2ccnc4ccc(C(=O)O)cc24)C3=O)cc(C)c1Cl [Example 172, (R)-4-(7-Chloro-10-(3-(4-chloro-3,5-dimethylphenoxy)propyl)-4-methyl-1-oxo-6-(1,3,5-trimethyl-1H-pyrazol-4-yl)-3,4-dihydropyrazino[1,2-a]indol-2(1H)-yl)quinoline-6-carboxylic acid] | < 1 nM | 320 nM | 
2 | Cc1cc(OCCCc2c3n(c4c(-c5c(C)nn(C)c5C)c(Cl)ccc24)CCCN(c2cc(C(=O)O)cc4nn(CCN(C)C)cc24)C3=O)cc(C)c1Cl [Example 28, 4-[8-chloro-11-[3-(4-chloro-3,5-dimethyl-phenoxy)propyl]-1-oxo-7-(1,3,5-trimethylpyrazol-4-yl)-4,5-dihydro-3H-[1,4]diazepino[1,2-a]indol-2-yl]-2-[2-(dimethylamino)ethyl]indazole-6-carboxylic acid] | 1.8 nM | 3700 nM | 
3 | Cc1cc(OCCCc2c3n(c4c(-c5c(C)nn(C)c5C)c(Cl)ccc24)[C@H](C)CN(c2cn(C)c4ccc(C(=O)O)cc24)C3=O)ccc1Cl [Example 407, (R)-3-(7-Chloro-10-(3-(4-chloro-3-methylphenoxy)propyl)-4-methyl-1-oxo-6-(1,3,5-trimethyl-1H-pyrazol-4-yl)-3,4-dihydropyrazino[1,2-a]indol-2(1H)-yl)-1-methyl-1H-indole-5-carboxylic acid] | 1.1 nM | 490 nM | 
4 | COCCn1ncc2c(C(=O)O)cc(N3CCCn4c(c(CCCOc5cc(C)c(Cl)c(C)c5)c5ccc(Cl)c(-c6c(C)nn(C)c6C)c54)C3=O)cc21 [Example 82, 6-[8-Chloro-11-[3-(4-chloro-3,5-dimethyl-phenoxy)propyl]-1-oxo-7-(1,3,5-trimethylpyrazol-4-yl)-4,5-dihydro-3H-[1,4]diazepino[1,2-a]indol-2-yl]-1-(2-methoxyethyl)indazole-4-carboxylic acid] | < 1 nM | 4800 nM | 
5 | Cc1cc(OCCCc2c3n(c4c(-c5c(C)nn(C)c5C)c(Cl)ccc24)CCCN(c2cccc4c(C(=O)O)nn(C)c24)C3=O)cc(C)c1Cl [Example 13, 7-[8-Chloro-11-[3-(4-chloro-3,5-dimethyl-phenoxy)propyl]-1-oxo-7-(1,3,5-trimethylpyrazol-4-yl)-4,5-dihydro-3H-[1,4]diazepino[1,2-a]indol-2-yl]-1-methyl-indazole-3-carboxylic acid] | < 1 nM | 4500 nM | 
6 | Cc1nc(-c2ccc3c(c2)c(N2C[C@@H](C)n4c(c(CCCOc5cc(C)c(Cl)c(C)c5)c5ccc(Cl)c(-c6c(C)nn(C)c6C)c54)C2=O)cn3C)no1 [Example 429, (R)-7-Chloro-10-(3-(4-chloro-3,5-dimethylphenoxy)propyl)-4-methyl-2-(1-methyl-5-(5-methyl-1,2,4-oxadiazol-3-yl)-1H-indol-3-yl)-6-(1,3,5-trimethyl-1H-pyrazol-4-yl)-3,4-dihydropyrazino[1,2-a]indol-1(2H)-one] | 1.8 nM | 970 nM | 
7 | Cc1cc(OCCCc2c3n(c4c(-c5c(C)nn(C)c5C)c(Cl)ccc24)CCCN(c2nn(CCN4CCOCC4)c4cc(C(=O)O)ccc24)C3=O)cc(C)c1Cl [Example 49, 3-(8-chloro-11-(3-(4-chloro-3,5-dimethylphenoxy)propyl)-1-oxo-7-(1,3,5-trimethyl-1H-pyrazol-4-yl)-4,5-dihydro-1H-[1,4]diazepino[1,2-a]indol-2(3H)-yl)-1-(2-morpholinoethyl)-1H-indazole-6-carboxylic acid] | < 1 nM | 2600 nM | 
8 | Cc1cc(N2CCCn3c(c(CCCOc4cc(C)c(Cl)c(C)c4)c4ccc(Cl)c(-c5c(C)ncnc5C)c43)C2=O)c2c(c1)cc(C(=O)O)n2C [Example 399, 7-(8-Chloro-11-(3-(4-chloro-3,5-dimethylphenoxy)propyl)-7-(4,6-dimethylpyrimidin-5-yl)-1-oxo-4,5-dihydro-1H-[1,4]diazepino[1,2-a]indol-2(3H)-yl)-1,5-dimethyl-1H-indole-2-carboxylic acid] | 2.4 nM | 210 nM | 
9 | CCn1ncc2c(C(=O)O)cc(N3CCCn4c(c(CCCOc5cc(C)c(Cl)c(C)c5)c5ccc(Cl)c(-c6c(C)nn(C)c6C)c54)C3=O)cc21 [Example 39, 6-[8-chloro-11-[3-(4-chloro-3,5-dimethyl-phenoxy)propyl]-1-oxo-7-(1,3,5-trimethylpyrazol-4-yl)-4,5-dihydro-3H-[1,4]diazepino[1,2-a]indol-2-yl]-1-ethyl-indazole-4-carboxylic acid] | 1.1 nM | 920 nM | 
10 | Cc1cc(OCCCc2c3n(c4c(-c5c(C)nn(C)c5C)c(Cl)ccc24)[C@H](C)CN(c2cn(C)c4ccc(C(=O)Nc5ccncc5)cc24)C3=O)cc(C)c1Cl [Example 283, 3-[(4R)-7-chloro-10-[3-(4-chloro-3,5-dimethyl-phenoxy)propyl]-4-methyl-1-oxo-6-(1,3,5-trimethylpyrazol-4-yl)-3,4-dihydropyrazino[1,2-a]indol-2-yl]-1-methyl-N-(4-pyridyl)indole-5-carboxamide] | 1.2 nM | 1200 nM | 
11 | COc1cc(C(=O)O)cc(N2CCCn3c(c(CCCOc4cc(C)c(Cl)c(C)c4)c4ccc(Cl)c(-c5c(C)nn(C)c5C)c43)C2=O)c1OCCCO [Example 67, 3-[8-Chloro-11-[3-(4-chloro-3,5-dimethyl-phenoxy)propyl]-1-oxo-7-(1,3,5-trimethylpyrazol-4-yl)-4,5-dihydro-3H-[1,4]diazepino[1,2-a]indol-2-yl]-4-(3-hydroxypropoxy)-5-methoxy-benzoic acid] | < 1 nM | 8500 nM | 
12 | Cc1cc(OCCCc2c3n(c4c(-c5c(C)nn(C)c5C)c(Cl)ccc24)[C@H](C)CN(c2c(C(=O)O)ccc4ccccc24)C3=O)cc(C)c1Cl [Example 190, (R)-1-(7-Chloro-10-(3-(4-chloro-3,5-dimethylphenoxy)propyl)-4-methyl-1-oxo-6-(1,3,5-trimethyl-1H-pyrazol-4-yl)-3,4-dihydropyrazino[1,2-a]indol-2(1H)-yl)-2-naphthoic acid] | < 1 nM | 2200 nM | 
13 | Cc1cc(OCCCc2c3n(c4c(-c5c(C)nn(C)c5C)c(Cl)ccc24)[C@H](C)CN(c2cc4ccc(C(=O)O)cc4n2C)C3=O)cc(C)c1Cl [Example 180, 2-[(4R)-7-chloro-10-[3-(4-chloro-3,5-dimethyl-phenoxy)propyl]-4-methyl-1-oxo-6-(1,3,5-trimethylpyrazol-4-yl)-3,4-dihydropyrazino[1,2-a]indol-2-yl]-1-methyl-indole-6-carboxylic acid] | 2.1 nM | 1500 nM | 
14 | CCn1cc(C(=O)O)c2cccc(N3C[C@@H](C)n4c(c(CCCOc5cc(C)c(Cl)c(C)c5)c5ccc(Cl)c(-c6c(C)nn(C)c6C)c54)C3=O)c21 [Example 103, (R)-7-(7-Chloro-10-(3-(4-chloro-3,5-dimethylphenoxy)propyl)-4-methyl-1-oxo-6-(1,3,5-trimethyl-1H-pyrazol-4-yl)-3,4-dihydropyrazino[1,2-a]indol-2(1H)-yl)-1-ethyl-1H-indole-3-carboxylic acid] | < 1 nM | 480 nM | 
15 | Cc1cc(OCCCc2c3n(c4c(-c5c(C)nn(CC6CCOCC6)c5C)c(Cl)ccc24)[C@H](C)CN(c2cccc4c(C(=O)O)cn(C)c24)C3=O)cc(C)c1Cl [Example 128, (R)-7-(7-chloro-10-(3-(4-chloro-3,5-dimethylphenoxy)propyl)-6-(3,5-dimethyl-1-((tetrahydro-2H-pyran-4-yl)methyl)-1H-pyrazol-4-yl)-4-methyl-1-oxo-3,4-dihydropyrazino[1,2-a]indol-2(1H)-yl)-1-methyl-1H-indole-3-carboxylic acid] | < 1 nM | 410 nM | 
16 | Cc1cc(OCCCc2c3n(c4c(-c5c(C)ncnc5C)c(Cl)ccc24)[C@H](C)CN(c2cccc4cc(C(N)=O)n(C)c24)C3=O)cc(C)c1Cl [Example 384, (R)-7-(7-Chloro-10-(3-(4-chloro-3,5-dimethylphenoxy)propyl)-6-(4,6-dimethylpyrimidin-5-yl)-4-methyl-1-oxo-3,4-dihydropyrazino[1,2-a]indol-2(1H)-yl)-1-methyl-1H-indole-2-carboxamide] | 6.8 nM | 910 nM | 
17 | Cc1cc(OCCCc2c3n(c4c(-c5c(C)nn(C)c5C)c(Cl)ccc24)[C@H](C)CN(c2cn(CCN4CCOCC4)c4cc(C(=O)O)ccc24)C3=O)cc(C)c1Cl [Example 292, (R)-3-(7-chloro-10-(3-(4-chloro-3,5-dimethylphenoxy)propyl)-4-methyl-1-oxo-6-(1,3,5-trimethyl-1H-pyrazol-4-yl)-3,4-dihydropyrazino[1,2-a]indol-2(1H)-yl)-1-(2-morpholinoethyl)-1H-indole-6-carboxylic acid] | < 1 nM | 690 nM | 
18 | Cc1cc(OCCCc2c3n(c4c(-c5c(C)nn(C)c5C)c(Cl)ccc24)[C@H](C)CN(c2cc(CN4CCCC4)cc4cc(C(=O)O)n(C)c24)C3=O)cc(C)c1Cl [Example 401, (R)-7-(7-chloro-10-(3-(4-chloro-3,5-dimethylphenoxy)propyl)-4-methyl-1-oxo-6-(1,3,5-trimethyl-1H-pyrazol-4-yl)-3,4-dihydropyrazino[1,2-a]indol-2(1H)-yl)-1-methyl-5-(pyrrolidin-1-ylmethyl)-1H-indole-2-carboxylic acid] | < 1 nM | 280 nM | 
19 | Cc1cc(OCCCc2c3n(c4c(-c5c(C)nn(C)c5C)c(Cl)ccc24)[C@H](C)CN(c2cc(O)cc4c2cc(C(=O)O)n4C)C3=O)cc(C)c1Cl [Example 305, (M, R)-4-(7-chloro-10-(3-(4-chloro-3,5-dimethylphenoxy)propyl)-4-methyl-1-oxo-6-(1,3,5-trimethyl-1H-pyrazol-4-yl)-3,4-dihydropyrazino[1,2-a]indol-2(1H)-yl)-6-hydroxy-1-methyl-1H-indole-2-carboxylic acid] | < 1 nM |  | 6200 nM
